Tests used:
[1] = Food intake in food-deprived rats after intranasal administration; assay type: in vivo, rat
Description: Male Sprague-Dawley rats, 150-175 g at the start of the experiments (Charles River Laboratories, Wilmington, Mass.) were housed individually in suspended wire mesh cages; maintained on a reversed-lighting schedule (lights-on at 7 p.m., lights-off at 7 a.m.); and acclimated to our climate controlled animal facility and to the test diets for 7 days prior to experimentation. As the experiments in food-deprived rats were performed during the dark cycle, a dull red light (25 watt) was used to help with placement and weighing of the food jars.
Rats had ad libitum access to tap water and food (Rodent Laboratory Chow No. 5001-pellet form, Purina) on non-testing days. A mush diet, used for experiments on food-deprived animals, and composed of equal parts by weight of ground rodent chow (Purina, # 5001-meal form) and a 4% nutrient agar solution (Teklad Diets) was presented to the animals in glass jars. […]
One hour after administration, pre-weighed food jars were introduced into the cage and a sheet of clean white paper placed under each cage to catch any spillage. The amount of food consumed after 1, 2 and 4 hours was determined to the nearest 0.01 g. […]
One hour later pre-weighed food jars were introduced into the cage and a sheet of clean white paper placed under each cage to catch any spillage. The amount of food consumed after 1, 2 and 4 hours was determined to the nearest 0.01 g.

[2] = Rota-Rod test after intranasal administration; assay type: in vivo, rat; conditions: intranasal 1 mg/kg; 6 rpm; sessions 0-60 minutes after administration
Description: Two groups of rats (12 rats each) were tested. Each rat went through 8 sessions on the rota-rod: 3 sessions before drug administration (pretest, time −45, −30, and −15 minutes); 1 session immediately after the drug was administered (time 0); and 4 sessions after drug administration (time 15, 30, 45, and 60 minutes).
A speed of 6 rpm was used, and diltiazem was administered, as described above, intra-nasally at 1 mg/kg.

[3] = tested on: olfactory epithelium; assay: Electro-olfactory (EOG) recording of olfactory epithelium response to odorant Citralva; assay type: in vivo, mice; conditions: 10 μl/nostril intranasal, recording 10 min later
Description: A detailed description of the method employed is provided, e.g., by Wong et al. (Neuron 2000: 27: 487-97), and Scott (J Neurosci 2000; 15:4721-31). Briefly, six week old mice were used and each mouse was given 10 μl/nostril of Diltiazem at 10 μM, 100 μM, or saline. It was returned to home cage and euthanized 10 min later for electro-olfactory (EOG) recording. The odorant was Ciltralva at 5 μM. Also included was a “no treatment” control.

SMILES: COc1ccc([C@@H]2Sc3ccccc3N(CCN(C)C)C(=O)[C@@H]2OC(C)=O)cc1 [diltiazem, Diltiazem]
- optimal dose (concentration of solution) for reduction of food intake ([1]; dosing study, intranasal 20 μL/nostril, 0.02, 0.2 and 2 mg/kg, strong trend (FIG. 2)): 0.2-20 % w/v
- amount of food consumed ([1]; intranasal 20 μL/nostril, 0.02-2 mg/kg, food given 1 hour after administration, consumed after 1, 2 and 4 hours, versus placebo (FIG. 1)): consumed significantly less food
- activity (balance and agility) in Rota-Rod test, drug versus vehicle group [2]: no indications of a difference in activity
- effect on olfactory nerve activity (EOG response to Citralva 5 μM) ([3]; 10 μM): little effect
- effect on olfactory nerve response (EOG response to Citralva 5 μM) ([3]; 100 μM): blocked

Source: patent US7435407B2, “Inhibition of olfactory neurosensory function to treat eating disorders and obesity” (Compellis Pharmaceuticals, priority 2002, dated 2008)
